Each structure is given as a SMILES string. pKi: −log10 of the molar value.

The assay has as its target Farnesyl diphosphate synthase (Leishmania major). Briefly: Binding affinity towards Farnesyl diphosphate synthase from leishmania major.
`Cc1cccc(Cc2ccc[n+](CC(O)(P(=O)([O-])O)P(=O)(O)O)c2)c1` (configuration not stated) [hydrogen 1-hydroxy-2-[3-(3-methylbenzyl)pyridinium-1-yl]-1-phosphonoethylphosphonate]: the pKi was 7.15. With `O=P([O-])(O)C(O)(C[n+]1cccc(Cc2ccccc2)c1)P(=O)(O)O` (configuration not stated) [hydrogen 2-(3-benzylpyridinium-1-yl)-1-hydroxy-1-phosphonoethylphosphonate] the figure was 6.80; with `Cc1ccc[n+](CC(O)(P(=O)([O-])O)P(=O)(O)O)c1` (configuration not stated) [hydrogen 1-hydroxy-2-(3-methylpyridinium-1-yl)-1-phosphonoethylphosphonate], 7.42.

`O=P([O-])(O)C(O)(C[n+]1cccc(-c2ccc(O)cc2)c1)P(=O)(O)O` (configuration not stated) [sodium hydrogen 1-hydroxy-2-[3-(4-oxidophenyl)pyridinium-1-yl]-1-phosphonoethylphosphonate] had a pKi of 7.12. This pKi lies 0.30 log units lower than the previous one. `O=P([O-])(O)C(O)(C[n+]1cccc(F)c1)P(=O)(O)O` (configuration not stated) [hydrogen 2-(3-fluoropyridinium-1-yl)-1-hydroxy-1-phosphonoethylphosphonate]: the pKi is 7.30. `CCCCc1ccc[n+](CC(O)(P(=O)([O-])O)P(=O)(O)O)c1` (configuration not stated) [hydrogen 2-(3-butylpyridinium-1-yl)-1-hydroxy-1-phosphonoethylphosphonate] gave a pKi of 7.70. Take `COc1ccc[n+](CC(O)(P(=O)([O-])O)P(=O)(O)O)c1` (configuration not stated) [hydrogen 1-hydroxy-2-(3-methoxypyridinium-1-yl)-1-phosphonoethylphosphonate]: the negative logarithm of the Ki (pKi) is 7.52.

Usually pKi stands for the Ki on a negative log10 scale, so that one unit is a factor of ten.

These data come from BindingDB's records for doi:10.1021/jm040209d (University of Illinois At Urbana-Champaign, 2005).
